The values below come from US20260118345A1, “METHOD OF EVALUATING INTERCELLULAR INTERACTIONS IN NEUROINFLAMMATION” (FUJIFILM Corporation, priority 2023, published 2026).

What all share (format): cell-based, human
The test system of test [1] is NF-κB. As to the kind of experiment: NF-κB localization by immunostaining after LPS stimulation, two-dimensional three-cell-type co-culture of astrocytes, neurons and microglia. Particulars: R-7050 10 μmol/L with LPS 100 ng/ml. On the procedure:
(§1) Matrigel basement membrane matrix (Corning, 356234) diluted 120-fold with DMEM/F12 (Life technologies, 11320-033) was added to a 96-well plate at 65 μL/well and allowed to stand at 4° C. After 24 hours, the culture medium was replaced with a progenitor cell culture medium and used.
Astrocyte precursor cells (XCell Science, XCS-AP-001-1V) were seeded in a 96-well plate at a density of 5×10^4 cells/well and cultured under the conditions of 37° C. and 5% CO2. The next day, the culture medium was replaced with the differentiation-inducing culture medium and further cultured for 5 days to differentiate into astrocytes.
The neurons were produced by forcing expression of the Ngn2 gene from iPS cells (WO2014/148646A; and Zhang Y, et al., Neuron, 78:785-98, 2013), and the cells that had been frozen and stored were used. The cells that had been frozen and stored were thawed in a warm bath at 37° C., and after thawing, the cells were added to the co-culture medium and centrifuged at 600×g at room temperature for 5 minutes. After centrifugation, the supernatant was removed, the cells were suspended in 1 mL of the co-culture medium, and the number of cells was counted.
As the microglia, iPS cell-derived microglia (iCell (registered trademark) Microglia, FCDI, C1110) were used. The cells that had been frozen and stored were thawed in a warm bath at 37° C., and after thawing, the cells were added to the co-culture medium and centrifuged at 600×g at room temperature for 5 minutes. After centrifugation, the supernatant was removed, the cells were suspended in 1 mL of the co-culture medium, and the number of cells was counted.
The neurons and the microglia were mixed in a ratio of 3:1 and seeded on the astrocytes at 4×10^4 cells/well. The cells were cultured under the conditions of 37° C. and 5% CO2, and half of the culture medium was replaced three times a week.
Microglia were specifically stimulated by adding LPS (FUJIFILM Wako Pure Chemical Corporation, 124-05151) at 100 ng/mL to the two-dimensional co-culture that had been cultured for 4 weeks. The cells were fixed by treating, for 30 minutes, with a formaldehyde solution (FUJIFILM Wako Pure Chemical Corporation, 061-00416) diluted 10-fold with PBS(−) (FUJIFILM Wako Pure Chemical Corporation, 166-23555) without treatment, and at 0.5 hours, 1 hour, 3 hours, 6 hours, and 24 hours after the treatment.
In addition, in the two-dimensional co-culture that had been cultured for 19 days, LPS (FUJIFILM Wako Pure Chemical Corporation, 124-05151) was added at 100 ng/ml and R-7050 (Cayman Chemical Company, 16870), which is a TNFR1 inhibitor, was added at 10 μmol/L, and the effect of TNF-α on the intercellular interaction induced by LPS stimulation was evaluated. The cells were fixed by treating, for 30 minutes, with a formaldehyde solution (FUJIFILM Wako Pure Chemical Corporation, 061-00416) diluted 10-fold with PBS (−) (FUJIFILM Wako Pure Chemical Corporation, 166-23555) without treatment, and at 0.5 hours, 1 hour, 3 hours, 6 hours, and 24 hours after the treatment.
The fixed cells were washed with PBS (−), and blocking and permeabilization were performed by treating with a solution (1% BSA/0.2% Triton X-100) in which BSA (Sigma-Aldrich, A4161) and Triton (registered trademark) X-100 (BioVision, 2104-100) were diluted to 1% and 0.2% with PBS (−) for 30 minutes. […]

The subject of test [2] is NF-κB. Briefly: NF-κB localization after TNF-α stimulation, two-dimensional two-cell-type co-culture of neurons and astrocytes. Particulars: TNF-α 7.5 ng/mL; 3 hours after the stimulation. On the procedure:
as §1
Astrocyte precursor cells (XCell Science, XCS-AP-001-1V) were seeded in a 96-well plate at a density of 6×10^4 cells/well, cultured under the conditions of 37° C. and 5% CO2, after culture medium was replaced with the differentiation induction culture medium, further cultured for 5 days to differentiate into astrocytes.
The neurons were produced by forcibly expressing the Ngn2 genes from the iPS cells and the cells that had been frozen and stored were used. The cells that had been frozen and stored were thawed in a warm bath at 37° C., and after thawing, the cells were added to the co-culture medium and centrifuged at 600×g at room temperature for 5 minutes. After centrifugation, the supernatant was removed, the cells were suspended in 1 mL of the co-culture medium, and the number of cells was counted.
In the two-cell-type co-culture, the neurons were seeded on the astrocytes at 3×10^4 cells/well. […]
After 3 hours of the stimulation with TNF-α, the cells were fixed by the method described in <1> of Test Example 1, and the localization of NF-κB was evaluated by the same method as in <1> of Test Example 1.

The test system of test [3] is two-cell-type co-culture of neurons and astrocytes. As to the kind of experiment: Neural activity by calcium imaging (BPM), two-dimensional two-cell-type co-culture of neurons and astrocytes. The note with it: 24 hours after stimulation (TNF-α 7.5 ng/mL or LPS 100 ng/mL). On the procedure:
Matrigel basement membrane matrix (Corning, 356234) diluted 120-fold with DMEM/F12 (Life technologies, 11320-033) was added to a 96-well plate at 65 μL/well and allowed to stand at 4° C. After 24 hours, the culture medium was replaced with a progenitor cell culture medium and used. Astrocyte precursor cells (XCell Science, XCS-AP-001-1V) were seeded in a 96-well plate at a density of 6×10^4 cells/well, cultured under the conditions of 37° C. and 5% CO2, after culture medium was replaced with the differentiation induction culture medium, further cultured for 5 days to differentiate into astrocytes. […] After centrifugation, the supernatant was removed, the cells were suspended in 1 mL of the co-culture medium, and the number of cells was counted. […] In addition, at 24 hours after the stimulation with LPS or TNF-α, the neural activity was evaluated by calcium imaging. […] After incubating for 1 hour under conditions of 37° C. and 5% CO2, the solution was replaced with a warmed (37° C.) recording solution, and the fluorescence was measured for 10 minutes with FDSS (registered trademark)/μcell (Hamamatsu Photonics K. K., C13299). The neural activity was evaluated by quantifying the number of peaks of calcium oscillation using Wave Checker Software (Hamamatsu Photonics K. K.).

Test [4] deals with three-cell-type co-culture of neurons, astrocytes, and microglia. As to the kind of experiment: Neural activity by calcium imaging (BPM), two-dimensional three-cell-type co-culture of neurons, astrocytes and microglia. Particulars: 24 hours after stimulation (TNF-α 7.5 ng/mL or LPS 100 ng/mL). As to the method: Matrigel basement membrane matrix (Corning, 356234) diluted 120-fold with DMEM/F12 (Life technologies, 11320-033) was added to a 96-well plate at 65 μL/well and allowed to stand at 4° C. After 24 hours, the culture medium was replaced with a progenitor cell culture medium and used. Astrocyte precursor cells (XCell Science, XCS-AP-001-1V) were seeded in a 96-well plate at a density of 6×10^4 cells/well, cultured under the conditions of 37° C. and 5% CO2, after culture medium was replaced with the differentiation induction culture medium, further cultured for 5 days to differentiate into astrocytes. […] After centrifugation, the supernatant was removed, the cells were suspended in 1 mL of the co-culture medium, and the number of cells was counted. […] After centrifugation, the supernatant was removed, the cells were suspended in 1 mL of the co-culture medium, and the number of cells was counted. […] In addition, at 24 hours after the stimulation with LPS or TNF-α, the neural activity was evaluated by calcium imaging. […] After incubating for 1 hour under conditions of 37° C. and 5% CO2, the solution was replaced with a warmed (37° C.) recording solution, and the fluorescence was measured for 10 minutes with FDSS (registered trademark)/μcell (Hamamatsu Photonics K. K., C13299). […]

Consider `FC(F)(F)c1nnc2c(Sc3ccccc3)nc3ccc(Cl)cc3n12` [R-7050], for which the “activation of the microglia affecting other cells (intercellular interaction)” value in the test on NF-κB [1] is reported as “suppressed”. Besides, the “nuclear signals of NF-κB, co-localization with microglia marker IBA1” value in the test on NF-κB [1] (1, 3, and 6 hours after the LPS stimulation) is recorded as “all co-localized with IBA1”. In addition, the “nuclear translocation of NF-κB” value with NF-κB [1] (1, 3, and 6 hours after the LPS stimulation, co-culture cultured 19 days) was “only some cells”.
As for TNF-α, the “nuclear translocation of NF-κB in GFAP-positive cells (astrocytes)” value in the test with NF-κB [2] is on record as “occurred”. In addition, the “nuclear translocation of NF-κB in Neun-positive cells (neurons)” value with NF-κB [2] is given as “not confirmed”. The “BPM (the number of peaks of calcium oscillation per minute) as compared with the control” value in test [3] and in test [4] was “increase” each time.
